Read-outs that look alike come from different tables or passages of the source. Each block holds one compound with its values, some of them ahead of it.
Assays:
[1] = test system: healthy male subjects; assay: Phase I human pharmacodynamics, potassium change from baseline (Example 15); assay type: in vivo, humans; settings: dry powder 800 micrograms, EpiPen 300 micrograms, standard IM 300 micrograms
Procedure: Safety and PK information was obtained for at least 2 hours following dosing.

[2] = test system: Male Sprague Dawley rats; assay: Rat heart rate by pulse oximeter after dosing (Example 12); assay type: in vivo
Procedure: (§1) Blood samples were taken from the rats via jugular catheters at time points 0, 2.5, 5, 10, and 20 minutes following dosing. Measurements of heart rate were also made at the same time points.
Study Design. The jugular vein of animals used in pharmacokinetics studies was catheterized with PE90 on the day before the dosing and sampling was performed. A total of six animals were used in this study. For anesthesia (catheter placement and powder dosing), a mixture of ketamine (25 mg), xylazine (3 mg), and acepromazine (0.2 mg) was injected intraperitoneally (IP) into each animal. The rats were placed on a heating pad after catheter placement to recover. After powder dosing, the rats were placed back in their respective cages. Identification numbers assigned to the rats were written on their tails as well as on the cage cards. Blood was taken and heart rate was measured using a pulse oximeter attached to the right hind limb of the rats at time 0, 2.5, 5.0, 10.0, and 20.0 minutes. The blood samples were collected by syringe from the jugular vein catheter. The blood was carefully ejected into EDTA coated tubes, mixed and then centrifuged for 5 minutes at 14,000 g to separate the plasma from the cells. Plasma was placed into clean microfuge tubes and stored refrigerated until received at the laboratory. […]

[3] = Rat pharmacokinetics, plasma epinephrine after intratracheal insufflation or IM injection (Example 12); assay type: in vivo, Sprague Dawley rats; settings: rats, injected intramuscularly with epinephrine in solution, up to 20 minutes
Procedure: as §1
Dose Administration. The powder was delivered to the lungs of rats by an insufflation technique. The insufflator device was from PennCentury (Philadelphia, Pa.). The delivery tube of the insufflator was inserted intratracheally through the mouth until the tip of the tube was about a centimeter from the carina (first bifurcation). […] The volume of […] used to deliver the powder from the sample chamber was 3 mL, which was achieved from a charged syringe. The syringe was recharged and discharged two more times for a total of three discharges per powder dose in order to decrease or eliminate powder residues in the sample chamber.
Study Design. The jugular vein of animals used in pharmacokinetics studies was catheterized with PE90 on the day before the dosing and sampling was performed. A total of six animals were used in this study. For anesthesia (catheter placement and powder dosing), a mixture of ketamine (25 mg), xylazine (3 mg), and acepromazine (0.2 mg) was injected intraperitoneally (IP) into each animal. […] Blood was taken and heart rate was measured using a pulse oximeter attached to the right hind limb of the rats at time 0, 2.5, 5.0, 10.0, and 20.0 minutes. […]

[4] = Phase I human pharmacokinetics of single doses (Example 15); assay type: in vivo, humans
Procedure: The following example describes a clinical study evaluating inhaled dry powder porous particles containing epinephrine (Formulation VII, as described in Table A). The study was a Phase I, randomized, double blind, placebo-controlled, dose escalation study of the safety, tolerability and pharmacokinetics (PK) of single doses of dry powder epinephrine in healthy male subjects. […] Safety and PK information was obtained for at least 2 hours following dosing.

[5] = Stability of epinephrine in dry powders with antioxidants, loosely capped vials (Example 10), HPLC; assay type: physicochemical; settings: 40° C. and 15% RH, compared to control containing no antioxidants
Description: Solution preparation. […] The leucine and the antioxidant were present at a combined 82% of the total solids concentration. The two phases were static-mixed immediately prior to being spray dried.
Solutions containing BHT, Vitamin E and Vitamin C were made using a slightly different procedure as follows. […] Additional ethanol pure solvent was static-mixed with the 50/50 ethanol/water solution to form a 70/30 (v/v) ethanol/water solution. The Vitamin E formulation at the 0.3% and 0.9% loadings were prepared as follows. The Vitamin E at these levels was dissolved in the complete organic phase and static-mixed with the aqueous phase which prevented the Vitamin E from precipitating out of solution. Vitamin C was only dissolved in the aqueous phase at 0.9% and the three other powders containing vitamin C at 0.6, 0.9 and 2.0% was prepared with Vitamin C dissolved in the organic phase. Spray drying of all of the powders was performed as described for Formulation IX using the procedure of Example 7.
Stability conditions and analysis. 50 mg of powder was placed into a 7 mL scintillation vial. The vial was loosely capped and placed inside an oven at 40° C. and approximately 15% relative humidity (RH). Samples were analyzed immediately (T0) and after 1, 2, 4 and 8 weeks of such storage. Controls containing no antioxidants (i.e., Formulation IX) were also placed at 45° C. and 50° C. loosely capped.

Structure (SMILES): O=S([O-])S(=O)(=O)[O-].[Na+].[Na+] [Sodium metabisulfite, sodium metabisulfite]
protection against degradation of epinephrine (in words) [5]: good protection against degradation of epinephrine

Structure (SMILES): O=C(O)CN(CCN(CC(=O)O)CC(=O)O)CC(=O)O [EDTA, ethylenediamine tetra-acetic acid]
protection against degradation of epinephrine (in words) [5]: good protection against degradation of epinephrine

Structure (SMILES): Cc1cc(C(C)(C)C)c(O)c(C(C)(C)C)c1 [BHT, butylated hydroxytoluene]
protection against degradation of epinephrine (in words) [5]: not effective antioxidants

More lines, main results first:

CMAX % CV ([4]; healthy male subjects, standard IM injection, 300 micrograms, n = 7): 66%
Cmax ([4]; male, human, plasma, im, 300 micrograms, healthy male subjects, standard IM injection, 300 micrograms, n = 7, read-out: CMAX Mean (SD)): 0.263 ng/mL
Tmax ([4]; male, human, plasma, im, 300 micrograms, healthy male subjects, standard IM injection, 300 micrograms, n = 7, read-out: TMAX (range)): 1 to 60 min
Cmax ([4]; male, human, plasma, im, 300 micrograms, standard IM injection 300 micrograms, read-out: CMAX values of 2 subjects with higher values): 0.405 ng/mL
Cmax ([4]; male, human, plasma, im, 300 micrograms, standard IM injection 300 micrograms, read-out: CMAX values of the others in the group): ≤ 0.22 ng/mL
CMAX values of 2 subjects with higher values ([4]; standard IM injection 300 micrograms): 595 pg/mL
Structure (SMILES): CNCC(O)c1ccc(O)c(O)c1 (centres unmarked) [Epinephrine, 4-[1-hydroxy-2-(methylamino)ethyl]-1,2-benzenediol]
time of maximal potassium mean change from baseline [1]: continued to decrease through 60 minutes post-dose
heart rate increase in one animal ([2]; one rat intramuscularly injected, observed out to 40 minutes, 25 minutes following dosing): 340 beats/minute
heart rate compared to baseline (in words) ([2]; rats, IM-injected, up to 20 minutes): did not exhibit a significant increase in heart rate
Plasma epinephrine levels (in words) [3]: very low and not significantly different from room air controls

protection against degradation of epinephrine (in words) [5]: not effective antioxidants
Structure (SMILES): O=C1O[C@H]([C@@H](O)CO)C(O)=C1O [Ascorbic acid, ascorbic acid]
